# Residues, ends and D or L forms follow the SMILES beside them. *: point of attachment. Orn(α-tetramethylguanidino) = CN(C)C(=N[C@@H](CCCN)C(=O)*)N(C)C
# Key:
# C. neoformans 1841 [1] = assay: Scanning electron microscopy, damaged cells; assay type: cell-based, Cryptococcus neoformans; conditions: 200 μmol/L, 10^8 CFU/mL, 3 h, 30°C
# Experimental: Overnight cultures of C. neoformans 1841 were prepared as described and adjusted with 50% SAB in phosphate buffer to reach 1 × 10^8 CFU/mL. Aqueous peptide solutions (20 μL) were added to the cell suspension (80 μL) to give a final peptide concentration of 200 μmol/L. Samples were incubated at 30°C on an orbital shaker (750 rpm) for 3 h. Samples were centrifuged (2,000 × g, 10 min, 4°C, Microfuge 22R, Beckmann Coulter), cell pellets were washed with ice-cold phosphate-buffered saline (PBS, 100 μL) and centrifuged again. Cell pellets were re-suspended in PBS (25 μL) and adhered overnight in humid atmosphere to glass coverslips (Borosilicate Glass, VWR International GmbH) previously coated with 0.001% poly-L-lysine (in case of Critical-Point Drying). Cells were fixed (2% glutaraldehyde, 2% paraformaldehyde, in PBS) for 60 min and afterwards stained with 1% OsO4 in PBS for 60 min. The cells were gradually dehydrated in ethanol series (30, 50, 70, 85, 90, 96% (once), and 100% (thrice) for 10 min. The coverslips were critical-point-dried (Baltec CPD 030, BAL-TEC GmbH, Schalksmühle, Germany) or air-dried after incubation with HMDS (3 min, RT) and sputter coated with 20 nm gold/palladium (Baltec MED 020, BAL-TEC GmbH). Cells were visualized using the SEM secondary electron detector (Zeiss EVO LS 15 LaB6, Carl Zeiss Microscopy Deutschland GmbH).
# GraphPad Prism 10.0.3 software was used for statistical analysis of the recorded data. A Dunnett’s multiple comparisons test (Ordinary-one-way ANOVA) was performed.
# [2] = system: C. neoformans strains 1841, H99, and KN99α; assay: Broth microdilution assay (MIC); assay type: cell-based, Cryptococcus neoformans
# [3] = system: C. neoformans strains 1841, H99, and KN99α; assay: Antifungal activity assay (CFU); assay type: cell-based, Cryptococcus neoformans; conditions: 2.5 μmol/L, 3 h incubation
# [4] = system: C. neoformans H99 (serotype A)
# C. neoformans 1841 [5] = assay: Antifungal activity assay (CFU on SAB agar); assay type: cell-based, Cryptococcus neoformans; conditions: treatment 3 h, 30 °C, mean ± SD, n = 4; for cell count C. neoformans 1841, 24 h: CFU counted after 24 h; for cell count C. neoformans 1841, 48 h: CFU counted after 48 h
# [6] = system: C. neoformans KN99α (serotype A, mating type MATα)
# C. neoformans KN99α = assay: Antifungal activity assay (CFU on SAB agar); assay type: cell-based, Cryptococcus neoformans; conditions: treatment 3 h, 30 °C, mean ± SD, n = 4; for cell count C. neoformans KN99α, 24 h: CFU counted after 24 h; for cell count C. neoformans KN99α, 48 h: CFU counted after 48 h
# [7] = system: C. neoformans 1841 (serotype D)
# C. neoformans H99 = assay: Antifungal activity assay (CFU on SAB agar); assay type: cell-based, Cryptococcus neoformans; conditions: treatment 3 h, 30 °C, mean ± SD, n = 4; for cell count C. neoformans H99, 24 h: CFU counted after 24 h; for cell count C. neoformans H99, 48 h: CFU counted after 48 h
# C. neoformans 1841 [8] = assay: Time-kill assay; assay type: cell-based, Cryptococcus neoformans; conditions: 2.5 μmol/L, 30°C, up to 24 h
# Experimental: The kinetic effects of the antifungal activity were determined by diluting overnight cultures to 5 × 10^4 CFU/mL with 50% SAB in phosphate buffer. Aqueous peptide solutions (20 μL) were added to the cell suspension (80 μL) to give a final peptide concentration of 2.5 μmol/L. Samples were incubated at 30°C on an orbital shaker (750 rpm, Titramax 1,000, Heidolph Instruments GmbH & Co. KG) for 24 h. Before incubation (0 min) and after 45 min, 90 min, 3 h, 6 h, and 24 h incubation, aliquots (10 μL) of samples were taken and diluted with phosphate buffer (10 mmol/L, pH 7.5) to observe countable cell colonies. Aliquots (100 μL) of the diluted cell suspensions were plated on SAB agar plates. Plates were incubated at 30°C and colonies were counted after 24 h.
# [9] = broth microdilution, 50% SAB in phosphate buffer, 30°C, read after 48 h, n = 6
# [10] = broth microdilution, 50% SAB in phosphate buffer, 30°C, read after 24 h, n = 6
structure (smiles),measurement,setting,value
CC[C@H](C)[C@H](NC(=O)[C@H](Cc1ccc(O)cc1)NC(=O)[C@@H](NC(=O)[C@@H]1CCCN1C(=O)[C@H](CCCNC(=N)N)NC(=O)[C@H](CC(N)=O)NC(=O)[C@H](CC(N)=O)NC(=O)[C@H](CCCN)N=C(N(C)C)N(C)C)C(C)C)C(=O)N1CCC[C@H]1C(=O)N[C@@H](CCCNC(=N)N)C(=O)N1CCC[C@H]1C(=O)N[C@@H](CCCNC(=N)N)C(=O)N1CCC[C@H]1C(=O)N1CCC[C@H]1C(=O)N[C@@H](Cc1c[nH]cn1)C(=O)N1CCC[C@H]1C(=O)N[C@@H](CCCNC(=N)N)C(=O)N[C@@H](CC(C)C)C(N)=O [Api88] ({Orn(α-tetramethylguanidino)}-NNRPVYIPRPRPPHPRL-NH2; N-terminus and C-terminus assumed),damaged cells in SEM,C. neoformans 1841 [1],only a small portion showed deep indentations
same,MIC at 48 h,"[2]; 48 h, forward sequence compared with its scrambled sequence",7.0 µM
same,MIC,"[2]; strains 1841, H99, and KN99α, 24 h",≥ 3.5 µM
same,effect on CFU of C. neoformans strains H99 and KN99α,[3],did not significantly reduce the CFU
same,MIC (μmol/L) H99 24 h,"[4]; H99 (serotype A, 24 h)",7.0 µmol/L
same,MIC (mg/L) H99 48 h,[4]; [9],8 mg/L
same,"cell count C. neoformans 1841, 24 h",C. neoformans 1841 [5]; 0.25 µmol/L,2.4 ± 0.1 x 10^4 CFU/mL
same,"cell count C. neoformans 1841, 48 h",C. neoformans 1841 [5]; 0.25 µmol/L,2.4 ± 0.1 x 10^4 CFU/mL
same,"cell count C. neoformans 1841, 24 h",C. neoformans 1841 [5]; 2.5 µmol/L,1.0 ± 0.1 x 10^4 CFU/mL
same,"cell count C. neoformans 1841, 48 h",C. neoformans 1841 [5]; 2.5 µmol/L,1.0 ± 0.1 x 10^4 CFU/mL
same,"cell count C. neoformans 1841, 24 h",C. neoformans 1841 [5]; 25 µmol/L,0.1 ± 0.0 x 10^4 CFU/mL
same,"cell count C. neoformans 1841, 48 h",C. neoformans 1841 [5]; 25 µmol/L,0.1 ± 0.0 x 10^4 CFU/mL
same,MIC (μmol/L) KN99α 48 h,"[6]; KN99α (serotype A, mating type MATα, 48 h)",7.0 µmol/L
same,MIC (mg/L) KN99α 24 h,[6]; [10],8 mg/L
same,"cell count C. neoformans KN99α, 24 h",C. neoformans KN99α; 0.25 µmol/L,3.0 ± 0.7 x 10^4 CFU/mL
same,"cell count C. neoformans KN99α, 48 h",C. neoformans KN99α; 0.25 µmol/L,3.1 ± 0.8 x 10^4 CFU/mL
same,"cell count C. neoformans KN99α, 24 h",C. neoformans KN99α; 2.5 µmol/L,3.0 ± 0.6 x 10^4 CFU/mL
same,"cell count C. neoformans KN99α, 48 h",C. neoformans KN99α; 2.5 µmol/L,3.1 ± 0.7 x 10^4 CFU/mL
same,"cell count C. neoformans KN99α, 24 h",C. neoformans KN99α; 25 µmol/L,1.5 ± 0.2 x 10^4 CFU/mL
same,"cell count C. neoformans KN99α, 48 h",C. neoformans KN99α; 25 µmol/L,1.6 ± 0.3 x 10^4 CFU/mL
same,MIC (μmol/L) 1841 48 h,"[7]; 1841 (serotype D, 48 h, pH 7.5)",7.0 µmol/L
same,MIC (mg/L) 1841 24 h,[7]; [10],8 mg/L
same,MIC (mg/L) 1841 48 h,[7]; [9],16 mg/L
same,"cell count C. neoformans H99, 24 h",C. neoformans H99; 0.25 µmol/L,2.7 ± 0.4 x 10^4 CFU/mL
same,"cell count C. neoformans H99, 48 h",C. neoformans H99; 0.25 µmol/L,2.8 ± 0.5 x 10^4 CFU/mL
same,"cell count C. neoformans H99, 24 h",C. neoformans H99; 2.5 µmol/L,3.0 ± 0.2 x 10^4 CFU/mL
same,"cell count C. neoformans H99, 48 h",C. neoformans H99; 2.5 µmol/L,3.3 ± 0.3 x 10^4 CFU/mL
same,"cell count C. neoformans H99, 24 h",C. neoformans H99; 25 µmol/L,1.7 ± 0.2 x 10^4 CFU/mL
same,"cell count C. neoformans H99, 48 h",C. neoformans H99; 25 µmol/L,2.0 ± 0.4 x 10^4 CFU/mL
same,time-dependent antifungal effect,C. neoformans 1841 [8],delayed antifungal effect

# — article PMC10800876, “Evaluation of proline-rich antimicrobial peptides as potential lead structures for novel antimycotics against Cryptococcus neoformans” (Frontiers in Microbiology, 2024)
